Assays:
[1] = tested on: mouse embryo fibroblasts (MEFs); assay: Mitochondrial transmembrane potential (Rhodamine123 flow cytometry) in MEFs; type: cell-based; settings: 10 μM 24 hours
Protocol: The cells were stained with 50 ng/ml Rhodamine123 for 15 minutes and analyzed by flow cytometry (left panels).
The cells were stained with 50 ng/ml Rhodamine123 (Molecular Probes) for 15 minutes at 37° C. Samples were analyzed by flow cytometry using 488 nm excitation and measurement of emission through a 576/26 (ethidium) bandpass filter (FIGS. 2A and 2B, left panels).

[2] = tested on: mouse embryo fibroblasts (MEFs); assay: H2O2-induced apoptosis (sub-G1 DNA, propidium iodide) in MEFs; type: cell-based; settings: 10 μM 24 hours, then 1 mM H2O2 18 hours
Protocol: (§1) Ethanol-fixed cells were stained with propidium iodide and monitored for sub-G1 DNA (upper panels). The percentage (mean±S.E.) of cells with sub-G1 DNA was determined from three separate experiments (lower panels).
(§2) Ethanol-fixed cells were stained with propidium iodide and monitored for sub-G1 DNA by FACScan (Becton-Dickinson) (FIGS. 3A and 3C). The percentage (mean±S.E.) of cells with sub-G1 DNA was determined from three separate experiments (FIGS. 3B and 3D).

U-937 cells = assay: H2O2-induced apoptosis (sub-G1 DNA, propidium iodide) in U-937 cells; type: cell-based, human; settings: 10 μM 24 hours, then 1 mM H2O2 18 hours
Protocol: as §1, §2

`Cc1ccc(NC(=O)c2ccc(CN3CCN(C)CC3)cc2)cc1Nc1nccc(-c2cccnc2)n1` [STI571, 4-[(4-Methyl-1-piperazinyl)methyl]-N-[4-methyl-3-[[4-(3-pyridinyl)-2-pyrimidinyl]amino-]-phenyl]benzanide methanesulfonate] was tested, and the “effect of STI571 alone on mitochondrial transmembrane potential” value ([1]; no H2O2) was “no apparent effect”, the “H2O2-induced decrease in mitochondrial transmembrane potential” value ([1]; then 1 mM H2O2 6 hours) was “substantially inhibited” and the “inhibitory effects on loss of mitochondrial transmembrane potential at longer periods of H2O2 exposure” value ([1]; then H2O2 18 hours) was “detectable”. The “decrease of H2O2-induced apoptosis (cells with sub-G1 DNA)” value [2] was 50% and the “inhibition of H2O2-induced apoptosis (cells with sub-G1 DNA)” value (U-937 cells) was “over 80%”.

From US20060128720A1, “Inhibition of cell death responses induced by oxidative stress” (priority 2002, published 2006)
